Values quoted from earlier work as cited in PubChem BioAssay AID1259409 (Chemical Carcinogenesis Research Information System (CCRIS), 2018).
Where “and” joins values, the source holds several entries; their conditions need not be identical. Equal values may be shown once.

System: rodent chemically induced tumor inhibition, incidence and multiplicity
Assay: CCRIS tumor inhibitor studies

Cc1c2ccncc2c(C)c2c1[nH]c1ccccc12
tumour outcome (control, treated, inhibition, significance) (Carcinogen: 7,12-DIMETHYLBENZ[A]ANTHRACENE, 57-97-6, Dose [Inhibitor]: 0, 4.1 NMOL IN 0.2 ML ACETONE APPLIED 5 MIN PRIOR TO CARCINOGEN (STUDY DURATION: 21 WK), Route [Inhibitor]: DERMAL, Species: MOUSE, Strain/Sex: SENCAR/FEMALE, Target Tissue: Type of Lesion: SKIN: PAPILLOMA, Dose [Carcinogen]: 10 NMOL IN 0.2 ML ACETONE ONCE, Promoter: 12-O-TETRADECANOYLPHORBOL-13-ACETATE, 16561-29-8): 79%, 100%, -27%, not calculated
tumour outcome (control, treated, inhibition, significance) (Carcinogen: 7,12-DIMETHYLBENZ[A]ANTHRACENE, 57-97-6, Dose [Inhibitor]: 0, 41 NMOL IN 0.2 ML ACETONE APPLIED 5 MIN PRIOR TO CARCINOGEN (STUDY DURATION: 21 WK), Route [Inhibitor]: DERMAL, Species: MOUSE, Strain/Sex: SENCAR/FEMALE, Target Tissue: Type of Lesion: SKIN: PAPILLOMA, Dose [Carcinogen]: 10 NMOL IN 0.2 ML ACETONE ONCE, Promoter: 12-O-TETRADECANOYLPHORBOL-13-ACETATE, 16561-29-8): 79%, 87%, -10%, not calculated
tumour outcome (control, treated, inhibition, significance) (Carcinogen: 7,12-DIMETHYLBENZ[A]ANTHRACENE, 57-97-6, Dose [Inhibitor]: 0, 410 NMOL IN 0.2 ML ACETONE APPLIED 5 MIN PRIOR TO CARCINOGEN (STUDY DURATION: 21 WK), Route [Inhibitor]: DERMAL, Species: MOUSE, Strain/Sex: SENCAR/FEMALE, Target Tissue: Type of Lesion: SKIN: PAPILLOMA, Dose [Carcinogen]: 10 NMOL IN 0.2 ML ACETONE ONCE, Promoter: 12-O-TETRADECANOYLPHORBOL-13-ACETATE, 16561-29-8): 79%, 47%, 41%, not calculated
tumour outcome (control, treated, inhibition, significance) (Carcinogen: 7,14-DIMETHYLBENZO[A,H]ANTHRACENE, 35335-07-0, Dose [Inhibitor]: 0, 4.1 NMOL IN 0.2 ML ACETONE APPLIED 5 MIN PRIOR TO CARCINOGEN (STUDY DURATION: 21 WK), Route [Inhibitor]: DERMAL, Species: MOUSE, Strain/Sex: SENCAR/FEMALE, Target Tissue: Type of Lesion: SKIN: PAPILLOMA, Dose [Carcinogen]: 47.5 NMOL IN 0.2 ML ACETONE ONCE, Promoter: 12-O-TETRADECANOYLPHORBOL-13-ACETATE, 16561-29-8): 97%, 100%, -3%, not calculated
tumour outcome (control, treated, inhibition, significance) (Carcinogen: 7,14-DIMETHYLBENZO[A,H]ANTHRACENE, 35335-07-0, Dose [Inhibitor]: 0, 41 NMOL IN 0.2 ML ACETONE APPLIED 5 MIN PRIOR TO CARCINOGEN (STUDY DURATION: 21 WK), Route [Inhibitor]: DERMAL, Species: MOUSE, Strain/Sex: SENCAR/FEMALE, Target Tissue: Type of Lesion: SKIN: PAPILLOMA, Dose [Carcinogen]: 47.5 NMOL IN 0.2 ML ACETONE ONCE, Promoter: 12-O-TETRADECANOYLPHORBOL-13-ACETATE, 16561-29-8): 97%, 93%, 4%, not calculated
tumour outcome (control, treated, inhibition, significance) (Carcinogen: 7,14-DIMETHYLBENZO[A,H]ANTHRACENE, 35335-07-0, Dose [Inhibitor]: 0, 410 NMOL IN 0.2 ML ACETONE APPLIED 5 MIN PRIOR TO CARCINOGEN (STUDY DURATION: 21 WK), Route [Inhibitor]: DERMAL, Species: MOUSE, Strain/Sex: SENCAR/FEMALE, Target Tissue: Type of Lesion: SKIN: PAPILLOMA, Dose [Carcinogen]: 47.5 NMOL IN 0.2 ML ACETONE ONCE, Promoter: 12-O-TETRADECANOYLPHORBOL-13-ACETATE, 16561-29-8): 97%, 90%, 7%, not calculated
tumour outcome (control, treated, inhibition, significance) (Carcinogen: DIBENZO[A,H]ANTHRACENE, 53-70-3, Dose [Inhibitor]: 0, 4.1 NMOL IN 0.2 ML ACETONE APPLIED 5 MIN PRIOR TO CARCINOGEN (STUDY DURATION: 21 WK), Route [Inhibitor]: DERMAL, Species: MOUSE, Strain/Sex: SENCAR/FEMALE, Target Tissue: Type of Lesion: SKIN: PAPILLOMA, Dose [Carcinogen]: 200 NMOL IN 0.2 ML ACETONE ONCE, Promoter: 12-O-TETRADECANOYLPHORBOL-13-ACETATE, 16561-29-8): 100%, 87%, 13%, not calculated
tumour outcome (control, treated, inhibition, significance) (Carcinogen: DIBENZO[A,H]ANTHRACENE, 53-70-3, Dose [Inhibitor]: 0, 41 NMOL IN 0.2 ML ACETONE APPLIED 5 MIN PRIOR TO CARCINOGEN (STUDY DURATION: 21 WK), Route [Inhibitor]: DERMAL, Species: MOUSE, Strain/Sex: SENCAR/FEMALE, Target Tissue: Type of Lesion: SKIN: PAPILLOMA, Dose [Carcinogen]: 200 NMOL IN 0.2 ML ACETONE ONCE, Promoter: 12-O-TETRADECANOYLPHORBOL-13-ACETATE, 16561-29-8): 100%, 97%, 3%, not calculated
tumour outcome (control, treated, inhibition, significance) (Carcinogen: DIBENZO[A,H]ANTHRACENE, 53-70-3, Dose [Inhibitor]: 0, 410 NMOL IN 0.2 ML ACETONE APPLIED 5 MIN PRIOR TO CARCINOGEN (STUDY DURATION: 21 WK), Route [Inhibitor]: DERMAL, Species: MOUSE, Strain/Sex: SENCAR/FEMALE, Target Tissue: Type of Lesion: SKIN: PAPILLOMA, Dose [Carcinogen]: 200 NMOL IN 0.2 ML ACETONE ONCE, Promoter: 12-O-TETRADECANOYLPHORBOL-13-ACETATE, 16561-29-8): 100%, 97%, 3%, not calculated

O=[N+]([O-])[O-].O=[N+]([O-])[O-].O=[N+]([O-])[O-].[Bi+3]
tumour outcome (control, treated, inhibition, significance) (Carcinogen: CISPLATIN, 15663-27-1, Dose [Inhibitor]: 0, 50 UMOL/KG/D 3 D/WK FOR 8 WK ADMINISTERED 24 HR PRIOR TO EACH CARCINOGEN DOSE (STUDY DURATION: 24 WK), Route [Inhibitor]: SUBCUTANEOUS, Species: MOUSE, Strain/Sex: STRAIN-A/FEMALE, Target Tissue: Type of Lesion: LUNG: TUMOR, Dose [Carcinogen]: 2 UMOL/KG/D 3 D/WK FOR 8 WK, Promoter: NONE USED): 100%, 54%, 46%, p<0.01
tumour outcome (control, treated, inhibition, significance) (Carcinogen: MELPHALAN, 148-82-3, Dose [Inhibitor]: 0, 50 UMOL/KG/D 3 D/WK FOR 8 WK ADMINISTERED 24 HR PRIOR TO EACH CARCINOGEN DOSE (STUDY DURATION: 24 WK), Route [Inhibitor]: SUBCUTANEOUS, Species: MOUSE, Strain/Sex: STRAIN-A/FEMALE, Target Tissue: Type of Lesion: LUNG: TUMOR, Dose [Carcinogen]: 4 UMOL/KG/D 3 D/WK FOR 8 WK, Promoter: NONE USED): 100%, 100%, 0%, not significant

Cn1c(=O)[nH]c2nc[nH]c2c1=O
tumour outcome (control, treated, inhibition, significance) (Carcinogen: URETHANE, 51-79-6, Dose [Inhibitor]: 0.05 UMOL/G BW GIVEN AT 6 HR INTERVALS DURING THE PERIOD OF 0 TO 36 HR AFTER CARCINOGEN TREATMENT FOLLOWED BY 5 MO OBSER, Route [Inhibitor]: INTRAPERITONEAL, Species: MOUSE, Strain/Sex: ICR/FEMALE, Target Tissue: Type of Lesion: LUNG: PAPILLARY ADENOMA, Dose [Carcinogen]: 0.1 MG/G BW ONCE, Promoter: NONE USED): 31/59 (53%), 18/36 (50%), 6%, not significant
tumour outcome (control, treated, inhibition, significance) (Carcinogen: URETHANE, 51-79-6, Dose [Inhibitor]: 0.25 UMOL/G BW 1/D DURING THE PERIOD OF 5 TO 9 D AFTER CARCINOGEN TREATMENT FOLLOWED BY OBSERVATION PERIOD UNTIL END OF, Route [Inhibitor]: INTRAPERITONEAL, Species: MOUSE, Strain/Sex: ICR/FEMALE, Target Tissue: Type of Lesion: LUNG: PAPILLARY ADENOMA, Dose [Carcinogen]: 1 MG/G BW ONCE, Promoter: NONE USED): 49/53 (93%), 39/43 (91%), 2%, not significant

CCOC(=S)S
tumour outcome (control, treated, inhibition, significance) (Carcinogen: N-NITROSO-DIETHYLAMINE, 55-18-5, Dose [Inhibitor]: 12.5 MG/KG IN DRINKING WATER ADMINISTERED SIMULTANEOUSLY WITH CARCINOGEN (STUDY DURATION: 28 WK), Route [Inhibitor]: ORAL, Species: RAT, Strain/Sex: BD6/MALE, Target Tissue: Type of Lesion: LIVER: TUMOR, Dose [Carcinogen]: 80 MG/KG 1/WK FOR 10 WK, Promoter: NONE USED): 12/14 (86%), 10/14 (71%), 16%, p>0.05
tumour outcome (control, treated, inhibition, significance) (Carcinogen: N-NITROSO-DIETHYLAMINE, 55-18-5, Dose [Inhibitor]: 25 MG/KG IN DRINKING WATER PLUS 100 MG/KG 1 HR BEFORE CARCINOGEN ADMINISTERED SIMULTANEOUSLY WITH CARCINOGEN (STUDY DURA, Route [Inhibitor]: ORAL, Species: RAT, Strain/Sex: BD6/MALE, Target Tissue: Type of Lesion: LIVER: TUMOR, Dose [Carcinogen]: 80 MG/KG 1/WK FOR 10 WK, Promoter: NONE USED): 12/14 (86%), 6/12 (50%), 42%, p<0.05

CC(C)=C1C=C(C(C)C)C(O)CC1 (centres undefined)
tumour outcome (control, treated, inhibition, significance) (Carcinogen: 7,12-DIMETHYLBENZ[A]ANTHRACENE, 57-97-6, Dose [Inhibitor]: 0, 12 NMOL PER REPEATED APPLICATION FOR 20 WK (STUDY DURATION: 20 WK), Route [Inhibitor]: DERMAL, Species: MOUSE, Strain/Sex: CD-1/FEMALE, Target Tissue: Type of Lesion: SKIN: TUMOR, Dose [Carcinogen]: 100 UG ONCE, Promoter: OKADAIC ACID, 78111-17-8): 87%, 33%, 62%, not calculated

O=c1ccc2ccc(O)cc2o1
tumour outcome (control, treated, inhibition, significance) (Carcinogen: 7,12-DIMETHYLBENZ[A]ANTHRACENE, 57-97-6, Dose [Inhibitor]: 0.034 MMOL/G IN DIET FOR 8 D BEGINNING 7 D PRIOR TO CARCINOGEN DOSE (STUDY DURATION: 23 WK), Route [Inhibitor]: ORAL, Species: RAT, Strain/Sex: SPRAGUE-DAWLEY/FEMALE, Target Tissue: Type of Lesion: MAMMARY GLAND: TUMOR, Dose [Carcinogen]: 12 MG IN 1.0 ML OLIVE OIL ONCE, Promoter: NONE USED): 93%, 93%, 0%, not significant
tumour outcome (control, treated, inhibition, significance) (Carcinogen: BENZO[A]PYRENE, 50-32-8, Dose [Inhibitor]: 0.034 MMOL/G IN DIET FOR 5 WK BEGINNING 1 WK PRIOR TO FIRST CARCINOGEN DOSE (STUDY DURATION: 21 WK), Route [Inhibitor]: ORAL, Species: MOUSE, Strain/Sex: ICR/FEMALE, Target Tissue: Type of Lesion: FORESTOMACH: TUMOR, Dose [Carcinogen]: 1 MG IN 0.2 ML CORN OIL 2/WK FOR 4 WK, Promoter: NONE USED): 100%, 95%, 5%, not significant and 90%, 95%,-5%, not significant and 95%, 100%, -5%, not significant
tumour outcome (control, treated, inhibition, significance) (Carcinogen: BENZO[A]PYRENE, 50-32-8, Dose [Inhibitor]: 0.068 MMOL/G IN DIET FOR 5 WK BEGINNING 1 WK PRIOR TO FIRST CARCINOGEN DOSE (STUDY DURATION: 21 WK), Route [Inhibitor]: ORAL, Species: MOUSE, Strain/Sex: ICR/FEMALE, Target Tissue: Type of Lesion: FORESTOMACH: TUMOR, Dose [Carcinogen]: 1 MG IN 0.2 ML CORN OIL 2/WK FOR 4 WK, Promoter: NONE USED): 100%, 95%, 5%, not significant
